Measured values published in the supplement of paper PMC11061612.

Experiments:
Test in all cases: combination Emax (second highest fraction inhibited in the dose matrix, 72 h); higher = more inhibition; extreme values may be limits of the assay
[1] = system: PL4 (Pancreatic Carcinoma)
Outline: (§1)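 Cell lines in DMEM/F12 or RPMI with 10% FBS were plated in 1536-well plates, held 24 hours at 37°C, 5% CO2, then given two-drug dose matrices for 72 hours (DMSO typically 0.2%). Viability was read by CellTiter-Glo 2.0 luminescence and scaled as inhibition from 0 (vehicle wells) to 1 (blank wells). Combination Emax is the second-highest inhibition in the matrix; Bliss excess is observed combination effect minus expected EA + EB − EA·EB, EA and EB being single-agent effects.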

[2] = system: KP-4 (Pancreatic Carcinoma)
Outline: as §1

[3] = system: MM1S (Plasma Cell Myeloma)
Outline: as §1

NCI-H2373 (Mesothelioma) = system: NCI-H2373 (Mesothelioma)
Outline: as §1

[4] = system: SNU-423 (Hepatocellular Carcinoma)
Outline: as §1

AM-38 (Glioblastoma) = system: AM-38 (Glioblastoma)
Outline: as §1

[5] = system: SCC-4 (Oral Cavity Carcinoma)
Outline: as §1

[6] = system: NAMALWA (Burkitt's Lymphoma)
Outline: as §1

[7] = system: T84 (Colorectal Carcinoma)
Outline: as §1

NB1 (Neuroblastoma) = system: NB1 (Neuroblastoma)
Outline: as §1

T47D (Breast Carcinoma) = system: T47D (Breast Carcinoma)
Outline: as §1

[8] = system: SK-CO-1 (Colorectal Carcinoma)
Outline: as §1

[9] = system: LCLC-103H (Non-Small Cell Lung Carcinoma)
Outline: as §1

[10] = system: NCI-H3118 (Head and Neck Carcinoma)
Outline: as §1

[11] = system: SiHa (Cervical Carcinoma)
Outline: as §1

GAK (Melanoma) = system: GAK (Melanoma)
Outline: as §1

[12] = system: NCI-H596 (Other Solid Carcinomas)
Outline: as §1

[13] = system: RCC-JW (Kidney Carcinoma)
Outline: as §1

[14] = system: Raji (Burkitt's Lymphoma)
Outline: as §1

[15] = system: MS-1 (Small Cell Lung Carcinoma)
Outline: as §1

SMILES	combination Emax [1]	combination Emax [2]	combination Emax [3]	combination Emax (NCI-H2373 (Mesothelioma))	combination Emax [4]	combination Emax (AM-38 (Glioblastoma))	combination Emax [5]	combination Emax [6]	combination Emax [7]	combination Emax (NB1 (Neuroblastoma))	combination Emax (T47D (Breast Carcinoma))	combination Emax [8]	combination Emax [9]	combination Emax [10]	combination Emax [11]	combination Emax (GAK (Melanoma))	combination Emax [12]	combination Emax [13]	combination Emax [14]	combination Emax [15]
Cc1cc2ncnn2cc1Nc1ncc2c(n1)n(C1CCOCC1)c(=O)n2C [AZD7648] + O=C(c1cc(Cc2n[nH]c(=O)c3ccccc23)ccc1F)N1CCN(C(=O)C2CC2)CC1 [Olaparib] (first compound max 10 µM, 7x7, partner max 10 µM)	0.28	0.181	0.339	0.572	0.275	0.616	0.259	0.578	0	0.191	0.313	0.488	0.299	0.167	0.143	0.0973	0.361	0.198	0.396	0.399
NC1(C(=O)N[C@@H](CCO)c2ccc(Cl)cc2)CCN(c2ncnc3[nH]ccc23)CC1 [Capivasertib] + CC(=O)c1c(C)c2cnc(Nc3ccc(N4CCNCC4)cn3)nc2n(C2CCCC2)c1=O [Palbociclib] (first compound max 10 µM, 7x7, partner max 10 µM)	0.478	0.595	0.981	0.538	0.458	0.473	0.271	0.701	0.267	0.697	0.434	0.419	0.448	0.519	0.252	0.474	0.596	0.449	0.491	0.266
NC1(C(=O)N[C@@H](CCO)c2ccc(Cl)cc2)CCN(c2ncnc3[nH]ccc23)CC1 [Capivasertib] + CC(C)n1c(=O)n(C)c2cnc3cc(F)c(-c4ccc(OCCCN5CCCCC5)nc4)cc3c21 [AZD1390] (first compound max 10 µM, 7x7, partner max 0.3 µM)	0.24	0.355	0.999	0.545	0.503	0.17	0.227	0.44	0.367	0.626	0.37	0.281	0.267	0.247	0.241	0.219	0.542	0.387	0.185	0.307
NC1(C(=O)N[C@@H](CCO)c2ccc(Cl)cc2)CCN(c2ncnc3[nH]ccc23)CC1 [Capivasertib] + CCN(CCO)CCCOc1ccc2c(Nc3cc(CC(=O)Nc4cccc(F)c4)[nH]n3)ncnc2c1 [AZD2811] (first compound max 10 µM, 7x7, partner max 1 µM)	0.393	0.682	0.998	0.491	0.571	0.285	0.333	0.713	0.389	0.79	0.456	0.64	0.413	0.241	0.299	0.219	0.564	0.358	0.293	0.386
NC1(C(=O)N[C@@H](CCO)c2ccc(Cl)cc2)CCN(c2ncnc3[nH]ccc23)CC1 [Capivasertib] + COc1nnc2ccc(N3CCC(c4ccc(OCCN5CCN(C)C(=O)[C@H]5C)cc4)CC3)nn12 [AZD5153] (first compound max 10 µM, 7x7, partner max 1 µM)	0.613	0.58	1	0.591	0.513	0.448	0.678	0.961	0.367	0.885	0.477	0.438	0.559	0.537	0.644	0.376	0.639	0.601	0.646	0.931
NC1(C(=O)N[C@@H](CCO)c2ccc(Cl)cc2)CCN(c2ncnc3[nH]ccc23)CC1 [Capivasertib] + C[C@@H]1COCCN1C2=NC(=NC(=C2)C3(CC3)[S@](=N)(=O)C)C4=C5C=CNC5=NC=C4 [AZD6738] (first compound max 10 µM, 7x7, partner max 10 µM)	0.777	0.597	0.99	0.707	0.586	0.7	0.558	0.937	0.68	0.853	0.481	0.668	0.524	0.603	0.413	0.509	0.575	0.635	0.724	0.747
NC1(C(=O)N[C@@H](CCO)c2ccc(Cl)cc2)CCN(c2ncnc3[nH]ccc23)CC1 [Capivasertib] + Cn1cnc2c(F)c(Nc3ccc(Br)cc3Cl)c(C(=O)NOCCO)cc21 [Selumetinib] (first compound max 10 µM, 7x7, partner max 10 µM)	0.726	0.483	1	0.664	0.491	0.675	0.778	0.387	0.539	0.776	0.42	0.886	0.389	0.657	0.233	0.757	0.575	0.369	0.192	0.267
